# Tests used:
# BMDMs [1] = assay: A1155463 in-vitro training assay in BMDMs; format: cell-based, mouse; details: 24 hours after challenge, vs PBS-trained
# Protocol: (§1) FIGS. 5A-5F: Testing A1155463 as an inducer of trained immunity (TI) in vitro. FIG. 5A is a schematic diagram for in-vitro TI assay in bone marrow-derived macrophages (BMDMs). FIG. 5B is a graph showing interleukin-6 (IL-6) levels (expressed in picograms per milliliter (pg/ml) 24 hours (h) post PAM3-CSK4 (Pam3) challenge in an in-vitro TI assay in BMDMs trained with either phosphate buffered saline (PBS) (black) or A1155463 (pink); n=15. FIG. 5C is a graph showing tumor necrosis factor alpha (TNF-α) levels (pg/ml) 24 h post Pam3 challenge in an in-vitro TI assay in BMDMs trained with either PBS (black) or A1155463 (pink); n=10. FIG. 5D is a graph showing IL-6 levels (pg/ml) 24 h post-stimulation with PBS (black) or A1155463 (pink); n=3. FIG. 5E is a graph showing the fold change in TNF-α following Pam3 challenge in BMDMs trained with A1155463 pre-treated with PBS, MTA (histone methyl transferase inhibitor), EGCG (histone acetyltransferase inhibitor) or 2-DG (glycolysis inhibitor); n=15, significance compared with PBS control of each inhibitor. FIG. 5F is a graph of IL-6 levels (pg/ml) 24 h post Pam3 challenge in an in-vitro TI assay in BMDMs trained with either PBS (black) or A1155463 (pink) pretreated with varying concentrations of 2-DG; n=5.
# A1155463 is a commercially available inhibitor of the B-cell lymphoma-extra large (Bcl-xL) protein. […]
# BMDMs [2] = assay: A1155463 training with inhibitor pre-treatment (MTA, EGCG, 2-DG); format: cell-based, mouse
# Protocol: as §1
# After ruling out apoptosis and innate inflammation, an additional study was performed to attempt to determine the mechanism of action of A1155463-induced training in BMDMs. Training induces epigenetic and metabolic rewiring of macrophages which can be probed using small molecule inhibitors of various pathways.^16 Epigenetic changes are associated with increased histone methylation and acetylation, promoting transcription and translation of proinflammatory cytokines in response to pathogenic stimuli. Metabolic changes alter cellular metabolism, mostly favoring glycolysis, to meet the higher energy requirements of a trained cell. […]
# bone-marrow cells = assay: Bone-marrow cells of trained mice challenged ex-vivo with LPS; format: in vivo, mouse; details: 5 ng/mL LPS ex vivo, 24 hours
# Protocol: FIGS. 6A-6H: in-vivo A1155463 trained immunity (TI) assays. FIG. 6A is a schematic showing the in-vivo training schedule. Mice were dosed intraperitoneally (i.p.) with training material (PBS or A1155463 at 15 milligrams per kilogram body weight (mg/kg)) daily for six days. Mice were challenged with […] lipopolysaccharide (LPS) on day 7. FIG. 6B is a graph showing the interleukin-6 (IL-6) and tumor necrosis factor-alpha (TNF-α) levels (expressed as picograms per milliliter (pg/ml) 1 hour (h) following LPS challenge with either PBS (black) or A1155463 (pink); n=5. FIG. 6C is a graph showing the percentage (%) of small peritoneal macrophages (SPMs) from the peritoneal cavity of PBS (black) or A1155463 trained (pink) mice 2 h post LPS challenge on day 7. FIG. 6D is a graph showing the IL-6 levels (pg/ml) from bone-marrow cells isolated on day 7 challenged ex-vivo with LPS from either PBS (black) or A1155463 (pink) trained mice; n=3. FIG. 6E is a schematic showing the in-vivo training schedule for B16.F10 tumor challenge. […]
# Apart from increased systemic cytokines, recruitment of monocyte-derived small peritoneal macrophages (SPMs) is another hallmark of enhanced training. […] Bone-marrow cells from PBS or A1155463 trained cells were challenged with 5 ng/mL of LPS and the supernatant was analyzed 24 hours later. […]
smiles,measurement,setting,value
"CN(C)CC#Cc1ccc(OCCCc2sc(N3CCc4cccc(C(=O)Nc5nc6ccccc6s5)c4C3)nc2C(=O)O)c(F)c1 [A1155463, 2-(8-(benzo[d]thiazol-2-ylcarbamoyl)-3,4-dihydroisoquinolin-2(1H)-yl)-5-(3-(4-(3-(dimethyl-amino)prop-1-yn-1-yl)-2-fluorophenoxy)propyl)thiozole-4-carboxylic acid]",increase in IL-6 following Pam3 challenge,BMDMs [1],approximately 1.2 fold
same,increase in TNF-α following Pam3 challenge,BMDMs [1],approximately 1.2 fold
same,"training after epigenetic small molecule inhibitors (MTA, EGCG)",BMDMs [2]; 30 min pre-treatment,no significant difference
same,Pam3 induced IL-6 levels with 2-DG,BMDMs [2]; different concentrations of 2-DG,significant decrease
same,reduction in the TNF-α level following Pam3 challenge by 2DG pre-treatment,BMDMs [2]; glycolysis inhibitor 2DG,50%
same,increase in bone-marrow derived IL-6 levels vs untrained control,bone-marrow cells,approximately 5 fold

# Reference: US20240398785A1, “SMALL MOLECULE DRUGS FOR THE INDUCTION OF TRAINED IMMUNITY” (THE UNIVERSITY OF CHICAGO, priority 2023, published 2024)
